Reference: patent US10525055B2, “Opioid receptor antagonist prodrugs” (Nirsum Laboratories, Inc., priority 2017, dated 2020)

Experiments:
[1] = Liver S9 fraction stability, monkey; assay type: in vitro ADME, cynomolgus monkey; conditions: 1.0 mg/ml S9 protein, 2 μM, 37° C.
Experimental: (§1) Liver S9 fraction stability determination of the test compounds in dog, cynomolgus monkey and human is performed using HPLC-MS. Test compound (2 μM, 0.1% DMSO, 1% Methanol final concentration) was assessed for stability in a 50 μl phosphate buffer containing 1.0 mg/ml S9 protein from each of the three species and 5 mM D-saccharic acid-1, 4-lactone. Samples were incubated at 37° C. for 60 minutes and the % compound remaining was assessed.

[2] = Plasma stability assay, monkey plasma; assay type: in vitro ADME, cynomolgus monkey; conditions: 37° C., 2 μM; for % remaining at time point in minutes, 15 min: 15 min (as headed); for % remaining at time point in minutes, 120 min: 120 min (as headed); for % remaining at time point in minutes, 480 min: 480 min (as headed); for % remaining at time point in minutes, 1440 min: 1440 min (as headed)
Experimental: (§2) Plasma stability determination of the test compounds in rat, dog, cynomolgus monkey and human plasma is performed using HPLC-MS. For rat, incubations are carried out in 96-well polypropylene plates in 5 aliquots of 70 μL each (one for each time point). […] Five time points are analyzed (0, 15, 120, 480 and 1440 min). […] All incubations are performed in duplicates. The samples are analyzed by HPLC-MS. The percentage of parent compound remaining after incubation in plasma is determined.

[3] = Liver S9 fraction stability, human; assay type: in vitro ADME; conditions: 1.0 mg/ml S9 protein, 2 μM, 37° C.
Experimental: as §1

[4] = Plasma stability assay, human plasma; assay type: in vitro ADME; conditions: 37° C., 2 μM; for % remaining at time point in minutes, 15 min: 15 min (as headed); for % remaining at time point in minutes, 120 min: 120 min (as headed); for % remaining at time point in minutes, 480 min: 480 min (as headed); for % remaining at time point in minutes, 1440 min: 1440 min (as headed)
Experimental: as §2

[5] = Liver S9 fraction stability, dog; assay type: in vitro ADME; conditions: 1.0 mg/ml S9 protein, 2 μM, 37° C.
Experimental: as §1

[6] = Plasma stability assay, dog plasma; assay type: in vitro ADME; conditions: 37° C., 2 μM; for % remaining at time point in minutes, 15 min: 15 min (as headed); for % remaining at time point in minutes, 120 min: 120 min (as headed); for % remaining at time point in minutes, 480 min: 480 min (as headed); for % remaining at time point in minutes, 1440 min: 1440 min (as headed)
Experimental: as §2

[7] = Solubility determination in oil (cottonseed oil, sesame oil); conditions: heating temp. 60 °C
Experimental: A known amount of test substance (˜40 mg) was weighed into the vial, 100 μL of oil was added and heated to 60° C. and then system was slurried to reach equilibrium. […] Extra oil was added into the vial once compound precipitated out and then the system was re-equilibrated at 1000 rpm at room temperature (25° C.). Final concentration was determined by HPLC method as described below in Table 6a and 6b.

[8] = Polymorph screening of solid state drug substances; conditions: for XRPD results (Dried): stirred 50 °C 72 hours, solids dried; for Visual observation 50° C. / Visual observation RT: target conc. 100 mg/ml; for Comment: stability of initial crystal form (pattern A): polymorph screen over Heptane
[9] = Plasma stability assay, rat plasma; assay type: in vitro ADME; conditions: 37° C., 10 μM
[10] = Physical characterization of solid state drug substance (PLM, XRPD, DSC, TGA); assay type: physicochemical; conditions: at 120° C., heated from room temperature at 10° C./minute
Experimental: The analysis of the physical characteristics of drug substances that were in a solid state was conducted using polarized light microscopy (PLM), X-ray powder diffractometer (XRPD) assessment, Differential Scanning calorimetry (DSC) and Thermal Gravimetric Analysis (TGA). For PLM, samples were dispersed in immersion oil and were observed using an ocular lens (10×) and objective lens (20×) under crossed polarizers. For XRPD, samples were run on a diffractometer using the following method: Tube—Cu: K-alpha (λ=1.54179 Å); Generator—Voltage 40 kV, Current 40 mA; Scan scope—3 to 40°; sample rotation speed—15 rpm; scanning rate—10 deg/min. For DSC, ˜1 mg of sample was tested using a crimped aluminum pan and covered by a lid with a hole, heated from room temperature to 300° C. at a speed of 10° C./minute. For TGA, 2-5 mg of sample was placed in an open platinum pan and heated from room temperature to 300° C. at a rate of 10° C./minute.

[11] = MTBE, Isopropanol, EtOAc, Acetone

SMILES | XRPD results (Dried) ([8]; Acetone) | Visual observation 50° C. ([8]; Acetone) | Visual observation RT ([8]; Acetone) | XRPD results (Dried) ([8]; EtOAc) | Visual observation 50° C. ([8]; EtOAc) | Visual observation RT ([8]; EtOAc) | XRPD results (Dried) ([8]; Heptane) | Visual observation 50° C. ([8]; Heptane) | Visual observation RT ([8]; Heptane) | XRPD results (Dried) ([8]; Isopropanol) | Visual observation 50° C. ([8]; Isopropanol) | Visual observation RT ([8]; Isopropanol) | XRPD results (Dried) ([8]; MTBE) | Visual observation 50° C. ([8]; MTBE) | Visual observation RT ([8]; MTBE) | % remaining at time point in minutes, 0 min [9] | % remaining at time point in minutes, 15 min [9] | % remaining at time point in minutes, 120 min [9] | % remaining at time point in minutes, 480 min [9] | % remaining at time point in minutes, 1440 min [9] | further results
CCCCCCCCCCCCCCCC(=O)OC1CCCn2c1nc(C)c(CCN1CCC(c3noc4cc(F)ccc34)CC1)c2=O (centres unmarked) [Paliperidone palmitate, reference compound] | – | – | – | – | – | – | – | – | – | – | – | – | – | – | – | – | – | – | – | – | Liver S9 Fraction Stability % remaining at 60 minutes, Monkey [1]: 57.4%; % remaining at time point in minutes, 0 min [2]: 100%; % remaining at time point in minutes, 15 min [2]: 92%; % remaining at time point in minutes, 120 min [2]: 89.5%; % remaining at time point in minutes, 480 min [2]: 98.4%; % remaining at time point in minutes, 1440 min [2]: 92.5%; Liver S9 Fraction Stability % remaining at 60 minutes, Human [3]: 47.8%; % remaining at time point in minutes, 0 min [4]: 100%; % remaining at time point in minutes, 15 min [4]: 103.7%; % remaining at time point in minutes, 120 min [4]: 97.6%; % remaining at time point in minutes, 480 min [4]: 109.1%; % remaining at time point in minutes, 1440 min [4]: 104.1%; Liver S9 Fraction Stability % remaining at 60 minutes, Dog [5]: 56.4%; % remaining at time point in minutes, 0 min [6]: 100%; % remaining at time point in minutes, 15 min [6]: 91.2%; % remaining at time point in minutes, 120 min [6]: 88.4%; % remaining at time point in minutes, 480 min [6]: 95.9%; % remaining at time point in minutes, 1440 min [6]: 93.1%
CCCCCCCCCCCCCCCC(=O)Oc1ccc2c3c1O[C@H]1C(=O)CC[C@@]4(O)C(C2)N(CC2CC2)CC[C@]314 [Compound 55, (4aS,7aR,12bS)-3-(cyclopropylmethyl)-4a-hydroxy-7-oxo-2,3,4,4a,5,6,7,7a-octahydro-1H-4,12-methanobenzofuro[3,2-e]isoquinolin-9-yl palmitate] | Pattern B | Clear | Slurry | Pattern B | Clear | Slurry | Pattern B | Clear | Slurry | Pattern B | Clear | Slurry | Pattern B | Clear | Clear | 100% | 77.3% | 47.2% | 27.1% | 15.6% | Approximate Solubility (mg/mL) in Excipient: Ethanol ([7]; Ethanol, obs. temp. 40 °C): >401.1 mg/mL; Approximate Solubility (mg/mL) in Excipient: Sesame oil ([7]; obs. temp. 40 °C): >394.8 mg/mL; Comment: stability of initial crystal form (pattern A) [8, 11]: Cannot determine which crystal form; Thermal Gravimetric Analysis, weight loss [10]: Weight loss of 0.2597%
CCCCCCCCCCCC(=O)OCN1C(=O)CCc2ccc(OCCCCN3CCN(c4cccc(Cl)c4Cl)CC3)cc21 [Aripiprazole lauroxil, reference compound] | – | – | – | – | – | – | – | – | – | – | – | – | – | – | – | 100% | 84% | 85.5% | 76.4% | 46% | Liver S9 Fraction Stability % remaining at 60 minutes, Monkey [1]: 56.6%; % remaining at time point in minutes, 0 min [2]: 100%; % remaining at time point in minutes, 15 min [2]: 95.2%; % remaining at time point in minutes, 120 min [2]: 94.5%; % remaining at time point in minutes, 480 min [2]: 75.5%; % remaining at time point in minutes, 1440 min [2]: 83.2%; Liver S9 Fraction Stability % remaining at 60 minutes, Human [3]: 47.8%; % remaining at time point in minutes, 0 min [4]: 100%; % remaining at time point in minutes, 15 min [4]: 99.7%; % remaining at time point in minutes, 120 min [4]: 80%; % remaining at time point in minutes, 480 min [4]: 73.2%; % remaining at time point in minutes, 1440 min [4]: 75.5%; Liver S9 Fraction Stability % remaining at 60 minutes, Dog [5]: 66.1%; % remaining at time point in minutes, 0 min [6]: 100%; % remaining at time point in minutes, 15 min [6]: 103%; % remaining at time point in minutes, 120 min [6]: 81.3%; % remaining at time point in minutes, 480 min [6]: 78.6%; % remaining at time point in minutes, 1440 min [6]: 74.3%
C=C1CC[C@@]2(O)C3Cc4ccc(OC(=O)OCCCCCCCCCCCCCC)c5c4[C@@]2(CCN3CC2CC2)[C@H]1O5 [Compound 31, (4aS,7aS,12bS)-3-(cyclopropylmethyl)-4a-hydroxy-7-methylene-2,3,4,4a,5,6,7,7a-octahydro-1H-4,12-methanobenzofuro[3,2-e]isoquinolin-9-yl tetradecyl carbonate] | Pattern A | Clear | Slurry | Pattern A | Clear | Clear | Pattern A | Clear | Slurry | Pattern A | Clear | Clear | Pattern A | Clear | Slurry | 100% | 123.2% | 73.5% | 54.4% | 46.4% | Approximate Solubility (mg/mL) in Excipient: Sesame oil ([7]; obs. temp. 25 °C): >413.5 mg/mL; Thermal Gravimetric Analysis, weight loss [10]: Weight loss of 0.7244%
CCCCCCCCCCCCOC(=O)Oc1ccc2c3c1O[C@H]1C(=O)CC[C@@]4(O)C(C2)N(CC2CC2)CC[C@]314 [Compound 11, (4aS,7aR,12bS)-3-(cyclopropylmethyl)-4a-hydroxy-7-oxo-2,3,4,4a,5,6,7,7a-octahydro-1H-4,12-methanobenzofuro[3,2-e]isoquinolin-9-yl dodecyl carbonate] | Pattern A | Clear | Slurry | Pattern A | Clear | Slurry | Pattern B | Clear | Clear | Pattern A | Clear | Slurry | Pattern A | Clear | Clear | 100% | 0.7% | 0.3% | 0.2% | 0% | Approximate Solubility (mg/mL) in Excipient: Sesame oil ([7]; obs. temp. 25 °C): <50 mg/mL; Comment: stability of initial crystal form (pattern A) [8, 11]: to be stable form; Pattern A generated; Thermal Gravimetric Analysis, weight loss [10]: Weight loss of 0.30% at
